“Also recorded” adds a separate entry of the source.
Columns and labels:
[1] = biological target: T1, Angiotensin II receptor (isolated rat aorta) (Rattus norvegicus, UniProt P25095); experiment: Isolated rat aorta, contractile force; cumulative angiotensin II dose-response curves with and without antagonist pretreatment; settings: dose/effect curve of angiotensin II; FIG. 1, FIG. 2
T1 construct: isolated rat aorta; from tissue; host or cells: isolated rat aorta
T1 sequence (P25095 1-359): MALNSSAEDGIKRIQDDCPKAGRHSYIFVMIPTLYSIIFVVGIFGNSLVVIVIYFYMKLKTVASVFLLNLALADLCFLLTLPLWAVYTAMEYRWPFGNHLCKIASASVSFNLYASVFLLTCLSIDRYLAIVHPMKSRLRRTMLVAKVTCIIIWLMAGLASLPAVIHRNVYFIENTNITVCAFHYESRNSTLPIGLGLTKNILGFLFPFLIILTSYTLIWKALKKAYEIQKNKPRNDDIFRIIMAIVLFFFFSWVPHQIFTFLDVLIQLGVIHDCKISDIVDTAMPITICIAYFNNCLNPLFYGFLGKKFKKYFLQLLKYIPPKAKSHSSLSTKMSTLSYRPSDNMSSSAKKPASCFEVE
Experimental: 1 or DuP 753 (10-8, 10^-7, 10^-6 mol/1, each) and results were expressed as percentage of maximum contraction obtained by addition of 10^-5 mol/1 noradrenaline.
EP50 -values and pA2 -values were determined arithmetically.
FIG. 1 Isolated rat aorta contractile force of subst. 1
FIG. 2 Isolated rat aorta contractile force of DuP 753

[2] = test system: angiotensin II induced increases in mean arterial blood pressure; experiment: Anaesthetized normotensive rat: angiotensin II induced increases in mean arterial blood pressure after intraduodenal administration; settings: FIG. 3
Experimental: b) anaesthetized normotensive rat: Angiotension II (1 /ug/kg i.v.) was given before as well as in 15 minutes intervals after intraduodenal administration of the drugs.
FIG. 3 The effects of DuP 753 and Subst. 1 on angiotension II induced increases in mean arterial bloodpessure in normotensive anaesthetized rats (n=4)

[3] = cited from earlier work
[4] = test system: angiotensin II receptor; settings: Wong et al., 1990, JPET 255, 211-217; cited from earlier work

| SMILES | mode of antagonism in vitro [1] | duration of action in vivo ([2]; DuP 753 compared with the substances according to the invention) | conversion into active non-competitive metabolite in vivo ([2]; concluded from duration of action) | metabolic conversion in vivo ([3]; literature) | mode of angiotensin II receptor antagonism [4] | contribution of metabolite to duration of action of DuP 753 ([3]; in vivo, Wong et al., 1990) |
| --- | --- | --- | --- | --- | --- | --- |
| CCCCc1nc(Cl)c(CO)n1Cc1ccc(-c2ccccc2-c2nn[nH]n2)cc1 [DuP 753, 2-n-butyl-4-chloro-5-hydroxymethyl-1-((2'-(1-H-tetrazol-5-yl)biphenyl-4-yl)methyl)imidazole] | acts competitively in experiments in vitro | longer duration of action | conversion into an active non-competitive metabolite is detectable | converted into a non-competitive metabolite, EXP 3174 | – | – |
| CCCCc1nc(Cl)c(C(=O)O)n1Cc1ccc(-c2ccccc2-c2nnn[nH]2)cc1 [EXP 3174, 2-n-butyl-4-chloro-1-((2'-(1H-tetrazol-5-yl)biphenyl-4-yl)methyl)-imidazole-5-carboxylic acid] | – | – | – | – | non-competitive irreversible angiotensin II receptor antagonist | responsible for the long duration of action; also recorded: largely responsible for the duration of action of DuP 753 |

— US5254574A, “New tetrazole derivatives, process for their preparation and their use” (Chemisch Pharmazeutische Forschungsgesellschaft m.b.H., priority 1991, dated 1993)
